# Test results from paper PMC8815882, “Screening the pandemic response box identified benzimidazole carbamates, Olorofim and ravuconazole as promising drug candidates for the treatment of eumycetoma” (PLoS Neglected Tropical Diseases, 2022).
# Like-named read-outs stand apart in the source and are kept apart here.
# Test system: M. mycetomatis genome strain MM55
# Experiment: CLSI M38-A2 based in vitro susceptibility screening (XTT or resazurin), growth at fixed concentration
# Format: cell-based, Madurella mycetomatis
# Conditions: Madurella mycetomatis; for Percent fungal survival at 100 µM: replicate 2, M. mycetomatis MM55, read-out: Percentage survival at 100um, 100 uM A (second replicate column)
# [1] = mean of three, M. mycetomatis MM55, read-out: Percentage survival at 25um, 25 uM mean
# [2] = replicate A, M. mycetomatis MM55, read-out: Percentage survival at 25um, 25 um A
# [3] = replicate B, M. mycetomatis MM55, read-out: Percentage survival at 25um, 25 uM B
# [4] = replicate C, M. mycetomatis MM55, read-out: Percentage survival at 25um, 25 uM C
# [5] = mean of three, M. mycetomatis MM55, read-out: Percentage survival at 100um, 100 uM mean
# [6] = replicate 1, M. mycetomatis MM55, read-out: Percentage survival at 100um, 100 uM A (first replicate column)
# [7] = replicate 3, M. mycetomatis MM55, read-out: Percentage survival at 100um, 100 uM A (third replicate column)
# [8] = mean of replicates, read-out: Percentage survival at 25um, 25 uM mean
# [9] = replicate A, read-out: Percentage survival at 25um, 25 um A
# [10] = replicate B, read-out: Percentage survival at 25um, 25 uM B
# [11] = replicate C, read-out: Percentage survival at 25um, 25 uM C
# [12] = mean of replicates, read-out: Percentage survival at 100um, 100 uM mean
# [13] = replicate 1, read-out: Percentage survival at 100um, 100 uM A
# [14] = replicate 2, read-out: Percentage survival at 100um, 100 uM A
# [15] = replicate 3, read-out: Percentage survival at 100um, 100 uM A
Compound,activity at 25 µM [1],activity at 25 µM [2],activity at 25 µM [3],activity at 25 µM [4],activity at 100 µM [5],activity at 100 µM [6],Percent fungal survival at 100 µM,activity at 100 µM [7],activity at 25 µM [8],activity at 25 µM [9],activity at 25 µM [10],activity at 25 µM [11],activity at 100 µM [12],activity at 100 µM [13],activity at 100 µM [14],activity at 100 µM [15],other results
O=C(NCc1ccccc1Cl)c1cnc2ccccc2n1 [MMV1230557],56.8%,50.8%,54.2%,65.3%,67.2%,41.9%,71.7%,88.1%,,,,,,,,,
O=C(NCc1ccc2c3c(cccc13)C(=O)N2)c1cccs1 [MMV1341773],,,,,,,,,75.4%,79.8%,76.7%,69.6%,76.2%,75.7%,74%,78.8%,
COc1c(F)c(F)cc2c(=O)c(C(=O)O)cn(C3CC3)c12 [MMV1480967],,,,,,,,,104%,87.1%,91%,135%,77.9%,85.8%,67.1%,80.8%,
COc1ccc(NC(=O)CC2Sc3ncnn3C2=O)cc1 (stereo not shown) [MMV1483032],78.4%,82.6%,81.9%,70.7%,36%,-1.84%,1.55%,108%,,,,,,,,,
CC1(C)Cc2c(C#N)c(SCCc3ccccc3)nc(N3CCOCC3)c2CO1 [MMV1549626],62.3%,67.7%,59.1%,60.3%,87.3%,92.1%,105%,65.1%,,,,,,,,,
CC[C@H](NC(=O)[C@H](C)NC)C(=O)N1C[C@@H](O)C[C@H]1Cc1c(-c2[nH]c3cc(F)ccc3c2C[C@@H]2C[C@H](O)CN2C(=O)[C@H](CC)NC(=O)[C@H](C)NC)[nH]c2cc(F)ccc12 [MMV1557856],,,,,,,,,,,,,,,,,"activity at 25 µM (mean of replicates, MM55, read-out: Percentage survival at 25um, 25 uM mean): 83.4%; activity at 25 µM (replicate A, MM55, read-out: Percentage survival at 25um, 25 um A): 88.1%; activity at 25 µM (replicate B, MM55, read-out: Percentage survival at 25um, 25 uM B): 92.5%; activity at 25 µM (replicate C, MM55, read-out: Percentage survival at 25um, 25 uM C): 69.7%; activity at 100 µM (mean of replicates, MM55, read-out: Percentage survival at 100um, 100 uM mean): 68.8%; activity at 100 µM (replicate 1, MM55, read-out: Percentage survival at 100um, 100 uM A): 72.6%; activity at 100 µM (replicate 2, MM55, read-out: Percentage survival at 100um, 100 uM A): 66.6%; activity at 100 µM (replicate 3, MM55, read-out: Percentage survival at 100um, 100 uM A): 67.1%"
O=C1NC(=O)C(Br)=C1Br [MMV1578554],,,,,,,,,76.9%,80.1%,86.3%,64.3%,43.3%,-3.69%,60.2%,73.5%,
O=C(Nc1ccc(F)cc1)c1nn(-c2ccccc2)c(=O)cc1Cl [MMV1578555],,,,,,,,,76.7%,84.2%,79.1%,66.7%,1.51%,0.758%,0.453%,3.31%,
C[C@H]1CC[C@@]2(O)C(C)(C)[C@@H]3CC[C@@]2(C)[C@H]1C3 [MMV1578556],75.9%,69.5%,83.8%,74.3%,84.9%,79.8%,92.6%,82.4%,,,,,,,,,
Cc1c(N)cccc1Cn1ccc(OCCc2cccs2)cc1=O [MMV1578557],79.8%,82.2%,84.5%,72.6%,78.3%,73%,81.9%,80%,,,,,,,,,
CCc1oc2ccccc2c1C(=O)c1ccc(O)cc1 [MMV1578558],,,,,,,,,91.9%,95.8%,97%,82.9%,2.03%,-1.97%,6.39%,1.66%,
